According to patent US20060014740A1 (priority 2003, published 2006):
Counter-ions that a name gives are not always drawn. Like-named read-outs stand apart in the source and are kept apart here.

Legend:
[1] = system: PC-3 human prostate cancer cells; test: SRB cytotoxicity assay, PC-3; format: cell-based; conditions: 96 h, read-out: IC50 PC-3
Method: (§1) For in vitro cytotoxicity screening, 1000 to 5000 cells were plated into each well of 96-well plates depending on growth rate, and exposed to different concentrations of a test compound for 96 h in three to five replicates. All the compounds were dissolved in dimethyl sulfoxide at 5 to 20 mM, and diluted to desired concentrations in complete culture medium. Cell numbers at the end of the drug treatment were measured by the SRB assay (Gududuru et al., “Synthesis and Biological Evaluation of Novel Cytotoxic Phospholipids for Prostate Cancer,” Bioorg. Med. Chem. Lett. 14:4919-4923 (2004); Rubinstein et at., “Comparison of in vitro Anticancer-Drug-Screening Data Generated with a Tetrazolium Assay Versus a Protein Assay Against a Diverse Panel of Human Tumor Cell Lines,” J. Naatl, Cancer Inst. 82:1113-1118 (1990), each of which is hereby incorporated by reference in its entirety). Briefly, the cells were fixed with 10% of trichloroacetic acid, stained with 0.4% SRB, and the absorbances at 540 nm was measured using a plate reader (DYNEX Technologies, Chantilly, Va.).
(§2) The antiproliferative activity of all the synthesized compounds was evaluated against five human prostate cancer cell lines and in RH7777 cells (negative control) using the sulforhodamine B (SRB) assay (see description in Example 5 above).
(§3) The chosen cell lines represent different basal levels of active AKT and LPL receptor expression (discussed later). Cells were exposed to a wide range of concentrations (0 to 100 μM) of the indicated compound for 96 h. Cell numbers at the end of treatment were measured using the sulforhodamine B (SRB) assay^5.
(§4) Cells were exposed to a wide range of concentrations (0 to 100 μM) of the particular compound for 96 h in 96 well plates. Cells were fixed with 10% trichloroacetic acid, washed five times with water. The plates were air dried overnight and fixed cells were stained with SRB solution. The cellular protein-bound SRB was measured at 540 nm using a plate reader. Cell numbers at the end of the treatment were measured.
as §4, with “96-well” for “96 well”, “calculated as a percentage of untreated control.” for “measured.”

[2] = system: OVCAR-3 human ovarian cancer cell line; test: SRB cytotoxicity assay, OVCAR-3; format: cell-based; conditions: Table 8
Method: as §1
(§5) In vitro cytotoxicity assay was performed by the same sulforhodamine B (SRB) assay (described above). The compounds shown in Table 8 below where tested for activity against the breast cancer and ovarian cancer cell lines.

[3] = system: human breast cancer cell line (MCF-7); test: SRB cytotoxicity assay, MCF-7; format: cell-based; conditions: Homo sapiens, MCF7, read-out: IC50 MCF-7
Method: as §1, §5, §3, §4

[4] = system: TSU-Pr1 human prostate cancer cells; test: SRB cytotoxicity assay, TSU-Pr1; format: cell-based; conditions: 96 h, read-out: IC50 TSU-Pr1
Method: (§6) Dr. Mitchell Steiner at University of Tennessee Health Science Center, kindly provided PPG-1 and TSU-PrI cells.
as §1, §2, §3, §4
as §4, with “96-well” for “96 well”, “calculated as a percentage of untreated control.” for “measured.”

[5] = system: RH7777 rat hepatoma cells; test: SRB cytotoxicity assay, RH7777 control cell line; format: cell-based; conditions: for IC50: read-out: IC50 RH7777
Method: as §1, §2, §3, §4
as §4, with “96-well” for “96 well”, “calculated as a percentage of untreated control.” for “measured.”

[6] = system: SKOv-3 human ovarian cancer cell line; test: SRB cytotoxicity assay, SKOv-3; format: cell-based; conditions: Table 8
Method: as §1, §5

[7] = system: LNCaP human prostate cancer cells; test: SRB cytotoxicity assay, LNCaP; format: cell-based; conditions: 96 h, read-out: IC50 LNCaP
Method: as §1, §2, §3, §4
as §4, with “96-well” for “96 well”, “calculated as a percentage of untreated control.” for “measured.”

[8] = system: PPC-1 human prostate cancer cells; test: SRB cytotoxicity assay, PPC-1; format: cell-based; conditions: for IC50: Homo sapiens, PPC-1
Method: as §6, §1, §2, §3, §4
as §4, with “96-well” for “96 well”, “calculated as a percentage of untreated control.” for “measured.”

[9] = system: CaOv-3 human ovarian cancer cell line; test: SRB cytotoxicity assay, CaOv-3; format: cell-based; conditions: Table 8
Method: as §1, §5

[10] = system: DU-145 human prostate cancer cells; test: SRB cytotoxicity assay, DU-145; format: cell-based; conditions: 96 h
Method: as §1, §2, §3, §4
as §4, with “96-well” for “96 well”, “calculated as a percentage of untreated control.” for “measured.”

[11] = Table 8, breast cancer cell line
[12] = Homo sapiens, TSU-Pr1, Example 10 table
[13] = Rattus norvegicus, RH7777, Example 10 table, 0 to 100 μM for 96 h
[14] = Homo sapiens, LNCaP, Example 10 table
[15] = Example 10 table, 96 h, read-out: IC50 PPC-1
[16] = Homo sapiens, DU-145, read-out: IC50 DU-145, Example 10 table
[17] = Rattus norvegicus, RH7777, Table 3, control cell line, 96 h
[18] = Table 3, 96 h, read-out: IC50 PPC-1
[19] = Homo sapiens, DU-145, read-out: IC50 DU-145, Table 3
[20] = Rattus norvegicus, RH7777, Table 4, control cell line, 96 h
[21] = Table 4, 96 h, read-out: IC50 PPC-1
[22] = Homo sapiens, DU-145, read-out: IC50 DU-145, Table 4

SMILES | IC50 ([2]; Homo sapiens, OVCAR-3) | IC50 [3, 11] | IC50 ([6]; Homo sapiens, SK-OV-3) | IC50 ([9]; Homo sapiens, Caov-3) | melting point | IC50 ([1]; Homo sapiens, Table 4) | IC50 ([4]; Homo sapiens, TSU-Pr1, Table 4) | IC50 [5, 20] | IC50 ([7]; Homo sapiens, LNCaP, Table 4) | IC50 [8, 21] | IC50 [10, 22] | also measured
CCCCCCCNC(=O)[C@@H]1CSC(c2ccccc2)N1 (mixture of isomers) [Compound 3-HCI, (2RS, 4R)-2-Phenylthiazolidine-4-carboxylic acid heptylamide Hydrochloride] | 34 µM | 50.3 µM | 47.8 µM | 19.2 µM |  |  |  |  |  |  |  | IC50 ([1]; Homo sapiens, Example 10 table): 38.5 µM; IC50 ([3]; Example 10 table, 96 h): 50.3 µM; IC50 [4, 12]: 28 µM; IC50 [5, 13]: 52.2 µM; IC50 [7, 14]: 12.4 µM; IC50 [8, 15]: 34.7 µM; IC50 [10, 16]: 44.9 µM
Cl.O=C(O)[C@@H]1CSC(c2ccoc2)N1 (mixture of isomers) [Compound 12-HCI, (2RS, 4R)-2-Furan-3-yl-thiazolidine-4-carboxylic acid Hydrochloride] | 2.3 µM |  | 5.4 µM | 7.7 µM |  |  |  |  |  |  |  | IC50 ([1]; Homo sapiens, Table 3): 8.1 µM; IC50 ([4]; Homo sapiens, TSU-Pr1, Table 3): 4.2 µM; Fold less selective against RH7777 cell line than compound 5 [5]: 3 fold; IC50 [5, 17]: 10.4 µM; IC50 ([7]; Homo sapiens, LNCaP, Table 3): 1.7 µM; IC50 [8, 18]: 1.1 µM; IC50 [10, 19]: 6.6 µM
CCCCCCCCCCCCCCCCCCNC(=O)[C@@H]1CSC(c2ccc(N(C)C)cc2)N1 (mixture of isomers) [Compound 13, (2RS, 4R)-2-(4-Dimethylamino-phenyl)-thiazolidine-4-carboxylic acid octadecylamide] |  | 13.5 µM |  |  | 75 °C |  |  |  |  |  |  | IC50 ([1]; Homo sapiens, Table 3): 6 µM; IC50 ([4]; Homo sapiens, TSU-Pr1, Table 3): 3 µM; IC50 [5, 17]: > 20 µM; IC50 ([7]; Homo sapiens, LNCaP, Table 3): 1.6 µM; IC50 [8, 18]: 1.1 µM; IC50 [10, 19]: 5.3 µM
CCCCCCCCCCCCCCCCCCNC(=O)[C@@H]1CSC(c2cc(OC)c(OC)c(OC)c2)N1 (mixture of isomers) [Compound 17-HCI, (2RS, 4R)-2-(3,4,5-Trimethoxy-phenyl)-thiazolidine-4-carboxylic acid octadecylamide Hydrochloride] | 1.4 µM |  | 2.7 µM | 4.4 µM |  |  |  |  |  |  |  | IC50 ([1]; Homo sapiens, Table 3): 4 µM; IC50 ([4]; Homo sapiens, TSU-Pr1, Table 3): 2.4 µM; IC50 [5, 17]: 11.4 µM; IC50 ([7]; Homo sapiens, LNCaP, Table 3): 0.82 µM; IC50 [10, 19]: 3.9 µM
CCCCCCCCCCCCCCCCCCNC(=O)[C@@H]1CSC(c2ccc(NC(C)=O)cc2)N1.Cl (mixture of isomers) [Compound 18-HCI, (2RS, 4R)-2-(4-Acetylamino-phenyl)-thiazolidine-4-carboxylic acid octadecylamide Hydrochloride] | 2 µM |  | 2.6 µM | 4.9 µM |  | 5.6 µM | 0.94 µM | 21.1 µM | 1.3 µM | 0.55 µM | 3.1 µM | Selectivity in PPC-1 cells compared to RH7777 cells [8]: 38 fold; IC50 ([8]; read-out: IC50 in PPC-1 cells): 0.55 µM
CCCCCCCCCCCCCCCCCCNC(=O)[C@@H]1CSC(c2ccc(Br)cc2)N1 (mixture of isomers) [Compound 20, (2RS, 4R)-2-(4-Bromo-phenyl)-thiazolidine-4-carboxylic acid octadecylamide] |  | 16.6 µM |  |  | 81 °C | 17.3 µM | 18.3 µM | > 20 µM | 5.1 µM | 3.7 µM | 13.8 µM | 
CCCCCCCCCCCCCCCCCCNC(=O)[C@@H]1CSC(c2ccc([N+](=O)[O-])cc2)N1 (mixture of isomers) [Compound 21, (2RS, 4R)-2-(4-Nitro-phenyl)-thiazolidine-4-carboxylic acid octadecylamide] |  | 16.3 µM |  |  | 115 °C | ~20 µM | 15.9 µM | ~20 µM | 8.4 µM | 15.3 µM | 15.3 µM | 
CCCCCCCCCCCCCCCCCCNC(=O)[C@@H]1CSC(c2ccc(F)c(Br)c2)N1 (mixture of isomers) [Compound 25, (2RS, 4R)-2-(3-Bromo-4-fluoro-phenyl)-thiazolidine-4-carboxylic acid octadecylamide] |  | 15.3 µM |  |  | 100 °C | 13.5 µM | 14 µM | ~20 µM | 3 µM | 4.7 µM | 11.3 µM | 
CCCCCCCCCCCCCCCCCCNC(=O)[C@@H]1CSC(c2ccc(C)cc2)N1 (mixture of isomers) [Compound 26, (2RS, 4R)-2 p-Tolyl-thiazolidine-4-carboxylic acid octadecylamide] |  | 10.3 µM |  |  | 120 °C | 12.8 µM | 8 µM | > 20 µM | 1.9 µM | 1.9 µM | 10.5 µM | 
CCCCCCCCCCCCCCCCCCNC(=O)[C@@H]1CSC(c2ccccc2)N1C(C)=O (mixture of isomers) [Compound 28, (2RS, 4R)-3-Acetyl-2-phenylthiazolidine-4-carboxylic acid octadecylamide] |  | 16.3 µM |  |  | 90 °C | ~20 µM | > 20 µM | > 20 µM | 16.1 µM | 12.6 µM | ~20 µM | 
CCCCCCCCCCCCCCCCCCNC(=O)[C@@H]1CSC(c2ccccc2)N1S(C)(=O)=O (mixture of isomers) [Compound 29, (2RS,4R)-3-Methanesulfonyl-2-phenylthiazolidine-4-carboxylic acid octadecylamide] |  | > 20 µM |  |  | 55 °C | > 20 µM | > 20 µM | > 20 µM | > 20 µM | > 20 µM | > 20 µM | 
CCCCCCCCCCCCCCCCCCNC(=O)[C@@H]1CSC(c2ccc(OC)c(OC)c2)N1 (mixture of isomers) [Compound 16-HCI, (2RS, 4R)-2-(3,4-Dimethoxy-phenyl)-thiazolidine-4-carboxylic add octadecylamide Hydrochloride] |  |  |  |  |  |  |  |  |  |  |  | IC50 ([1]; Table 3): 5.2 µM; IC50 [2]: 1.2 µM; IC50 ([4]; Table 3): 2.4 µM; IC50 ([5]; Table 3, control cell line, 96 h): 10.3 µM; IC50 [6]: 3.6 µM; IC50 ([7]; Table 3): 0.85 µM; IC50 [9]: 5.5 µM; IC50 ([10]; read-out: IC50 DU-145, Table 3): 4.5 µM
CCCCCCCCCCCCCCCCCCNC(=O)[C@H]1CSC(c2ccccc2)N1 (stereo partly drawn) [5-HCI (S), (4S)-N-octadecyl-2-phenylthiazolidine-4-carboxamide] | 5.2 µM | 7.4 µM | 18 µM | 18 µM |  |  |  |  |  |  |  | IC50 ([1]; Homo sapiens, Example 10 table): > 10 µM; IC50 ([3]; Example 10 table, 96 h): 7.4 µM; IC50 [4, 12]: ~10 µM; IC50 [5, 13]: 19.1 µM; IC50 [7, 14]: 6.3 µM; IC50 [8, 15]: 4 µM; IC50 [10, 16]: 7.1 µM
